Source: ChEMBL document CHEMBL3217429, “Structural studies of Enterococcus faecalis methionine aminopeptidase and design of microbe specific 2,2-bipyridine based inhibitors” (Medchemcomm, 2012)
Activity calls are given as the source filed them. The calls are words filed in the database; no cut-off is given here.

Assays:
Enterococcus faecalis [1] = assay: (§1) Inhibition of Enterococcus faecalis recombinant type 1 methionine aminopeptidase expressed in Escherichia coli BL21 (DE3) using Met-pNA substrate
[2] = as §1
Enterococcus faecalis [3] = assay: Maximal inhibition of Enterococcus faecalis recombinant type 1 methionine aminopeptidase expressed in Escherichia coli BL21 (DE3) using Met-pNA substrate at 10 uM in presence of CoCl2
Enterococcus faecalis [4] = assay: Inhibition of Enterococcus faecalis recombinant type 1 methionine aminopeptidase expressed in Escherichia coli BL21 (DE3) using Met-pNA substrate by spectral study in presence of CoCl2
Enterococcus faecalis [5] = assay: Inhibition of Enterococcus faecalis recombinant type 1 methionine aminopeptidase expressed in Escherichia coli BL21 (DE3) using Met-pNA substrate by spectral study in presence of Mn2+

inhibition (Enterococcus faecalis [1])	IC50 [2] [µM]	inhibition (Enterococcus faecalis [3]) [%]	inhibition (Enterococcus faecalis [4])	inhibition (Enterococcus faecalis [5])	SMILES
inactive	–	–	–	–	c1cc(-c2ccncc2)ccn1
inactive	–	–	–	–	O=C([O-])CC(O)(CC(=O)[O-])C(=O)[O-].[Na+].[Na+].[Na+]
–	6.67	75	Active	Active	c1ccc(-c2ccccn2)nc1 [DIPYRIDYL]
